For 34 compounds, IC50 and EC50 results are on record in US11091428B2 (HAPLOGEN GMBH, priority 2016, dated 2021).

The target in experiment [1] is T1, PLA2G16 (Homo sapiens, UniProt P53816).
T1 construct: Hexa-His (N); made in house; host or cells: E. coli BL21(DE3)
T1 sequence (P53816 1-162): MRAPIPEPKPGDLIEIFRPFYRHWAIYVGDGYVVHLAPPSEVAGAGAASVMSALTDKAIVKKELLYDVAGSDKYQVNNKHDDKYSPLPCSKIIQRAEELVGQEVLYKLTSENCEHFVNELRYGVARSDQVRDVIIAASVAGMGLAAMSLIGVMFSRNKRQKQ
Put plainly: Enzyme activity assay for PLA2G16 (Red/Green BODIPY PC-A2 fluorescence). It is filed as biochemical. As to conditions: His-tagged PLA2G16, 4 min pre-incubation, 2 nM to 50 μM; read-out: IC50 values of the compounds determined in the enzyme activity assay for PLA2G16. The essentials: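 N-His-tagged human PLA2G16 from E. coli, Ni-NTA purified. Pre-incubated 4 min with compound (2 nM–50 μM final) in pH 8.5 Tris/NaCl buffer with 5 mM glutathione, then BODIPY PC-A2 in DOPC/DOPG/cholesterol vesicles added. Fluorescence (ex 480/em 530 nm) increase over 10 min taken as activity; IC50 by non-linear regression.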

In experiment [2] the test system is picornaviruses (CVB1, HRV-A2, HRV-A23, EV-68). Briefly: Anti-picornavirus cytopathic effect (CPE) reduction assay on HeLa H1 cells. It counts as cell-based. As to conditions: Enterovirus B, HeLa H1 cells, 48 h, category from averaging the EC50 values from four picornaviruses (CVB1, HRV-A2, HRV-A23, EV68), read-out: EC50 values of the compounds determined in the anti-picornavirus assay. The essentials: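 HeLa H1 cells pre-treated 2 h with serially diluted compound in DMEM/2% FBS, then infected at an MOI giving full CPE in 2 days. After 48 h at 37° C, viability read by CellTiterBlue fluorescence (ex 560/em 590 nm), normalised to infected and uninfected vehicle controls; EC50 by non-linear regression, category from mean of four viruses.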
In general terms: Damage to the host cells serves as the signal in cytopathic effect assays.

Structures are written as SMILES. Like-named read-outs stand apart in the source and are kept apart here.

Usually IC50 stands for the concentration needed to halve the response being measured. One may read the EC50 as the concentration giving half of the maximal effect. For `O=C(NCC1CC1)C(=O)[C@H]1CCC(=O)N1Cc1ccccc1` [FP 224, 2-[(2R)-1-Benzyl-5-oxopyrrolidin-2-yl]-N-(cyclopropylmethyl)-2-oxoacetamide], the half-inhibitory concentration (IC50) in experiment [1] was under 1000 nM. Besides, the 50% effective concentration (EC50) in experiment [2] (HeLa H1, 48 h) is under 1000 nM.

`CC(C)NC(=O)C(=O)C(C)OC1CCCCC1` (centres unmarked) [FP 125, 3-(Cyclohexyloxy)-2-oxo-N-(propan-2-yl)butanamide]: the IC50 in experiment [1] was in the range of 1000 to 10000 nM. In experiment [2] (HeLa H1, 48 h), the EC50 fell in the range of 1000 to 10000 nM.

`CC(=O)NCCNC(=O)C(=O)C1CCC(=O)N1Cc1ccc(Cl)cc1` (centres unmarked) [FP 243, 2-{1-[(4-Chlorophenyl)methyl]-5-oxopyrrolidin-2-yl}-N-(2-acetamidoethyl)-2-oxoacetamide]: in experiment [1], the 50% inhibitory concentration (IC50) lay in the range of 1000 to 10000 nM. Moreover, the concentration giving a half-maximal response (EC50) in experiment [2] (HeLa H1, 48 h) was over 10000 nM.

On to `COc1ccccc1N(C=O)C(C)C(=O)C(=O)NCc1ccccc1C` (centres unmarked) [FP 98, 3-[N-(2-Methoxyphenyl)formamido]-N-[(2-methylphenyl)methyl]-2-oxobutanamide], for which the IC50 in experiment [1] was under 1000 nM. Further, the EC50 in experiment [2] (HeLa H1, 48 h) is 1000 to 10000 nM.

As for `COc1ccccc1N(C=O)C(C)C(=O)C(=O)NCC1CCCCC1` (centres unmarked) [FP 25, N-(Cyclohexylmethyl)-3-[N-(2-methoxyphenyl)formamido]-2-oxobutanamide], the IC50 in experiment [1] is under 1000 nM. For the same compound, in experiment [2] (HeLa H1, 48 h), the EC50 is under 1000 nM.

As to `CC(C)CC(C(=O)C(=O)NCC1CC1)N(C=O)CC1CCOC1` (centres unmarked) [FP 73, N-(Cyclopropylmethyl)-5-methyl-2-oxo-3-{N-[(oxolan-3-yl)methyl]formamido} hexanamide], the IC50 in experiment [1] was under 1000 nM. The half-maximal effective concentration (EC50) in experiment [2] (HeLa H1, 48 h) lay within 1000 to 10000 nM.

For the compound `O=C(NCCO)C(=O)C1CCC(=O)N1Cc1ccc(Cl)cc1` (centres unmarked) [FP 256, 2-{1-[(4-Chlorophenyl)methyl]-5-oxopyrrolidin-2-yl}-N-(2-hydroxyethyl)-2-oxoacetamide], the IC50 in experiment [1] was under 1000 nM. Also, the EC50 in experiment [2] (HeLa H1, 48 h) lay in the range of 1000 to 10000 nM.

As to `O=C(N[C@@H]1CCCCNC1=O)C(=O)[C@H]1CCC(=O)N1Cc1ccccc1` [FP 300, 2-[(2R)-1-Benzyl-5-oxopyrrolidin-2-yl]-2-oxo-N-[(3R)-2-oxoazepan-3-yl]acetamide], the IC50 in experiment [1] is under 1000 nM. Further, in experiment [2] (HeLa H1, 48 h), the EC50 lay in the range of 1000 to 10000 nM.

As for `Cc1ccc(CN2C(=O)CCC2C(=O)C(=O)NC2CC2)cc1` (centres unmarked) [FP 270, N-Cyclopropyl-2-{1-[(4-methylphenyl)methyl]-5-oxopyrrolidin-2-yl}-2-oxoacetamide], the IC50 in experiment [1] is under 1000 nM. Further, the EC50 in experiment [2] (HeLa H1, 48 h) was under 1000 nM.

As for `CCC(=O)N(C)C(C)C(=O)C(=O)NCC1CCCCC1` (centres unmarked) [FP 145, N-(Cyclohexylmethyl)-3-(N-methylpropanamido)-2-oxobutanamide], in experiment [1], the IC50 is under 1000 nM. The EC50 in experiment [2] (HeLa H1, 48 h) lay within 1000 to 10000 nM.

Turning to `O=C(NC1CC1)C(=O)C1CCC(=O)N1Cc1ccccc1` (centres unmarked), the IC50 in experiment [1] was under 1000 nM. Further, the EC50 in experiment [2] (CVB1|EV68|HRVA2|HRVA23, HeLa H1, 48 h) lay in the range of 1000 to 10000 nM.

In the case of `CC(C)CC(C(=O)C(=O)NCC1CC1)N(C=O)CC1CC1` (centres unmarked) [FP 62, N-(Cyclopropylmethyl)-3-[N-(cyclopropylmethyl)formamido]-5-methyl-2-oxohexanamide], the IC50 in experiment [1] was under 1000 nM. In addition, in experiment [2] (HeLa H1, 48 h), the EC50 is under 1000 nM.

Regarding `CC(C(=O)C(=O)NCC1CC1)N(Cc1ccccc1)S(C)(=O)=O` (centres unmarked) [FP 222, 3-(N-Benzylmethanesulfonamido)-N-(cyclopropylmethyl)-2-oxobutanamide], the IC50 in experiment [1] was under 1000 nM. Further, the EC50 in experiment [2] (HeLa H1, 48 h) is over 10000 nM.

On to `CC(OCC1CCOCC1)C(=O)C(=O)NCC1CCCC1` (centres unmarked) [FP 132, N-(Cyclopentylmethyl)-3-[(oxan-4-yl)methoxy]-2-oxobutanamide], for which the IC50 in experiment [1] is under 1000 nM. Also, in experiment [2] (HeLa H1, 48 h), the EC50 is under 1000 nM.

With `CC(C)CNC(=O)C(=O)C(C)N(C=O)C1CCCCC1` (centres unmarked) [FP 15, 3-(N-Cyclohexylformamido)-N-(2-methylpropyl)-2-oxobutanamide], the IC50 in experiment [1] was under 1000 nM. Also, the EC50 in experiment [2] (HeLa H1, 48 h) is under 1000 nM.

Turning to `CC(OCC1CCOCC1)C(=O)C(=O)NCC1CCC1` (centres unmarked) [FP 131, N-(Cyclobutylmethyl)-3-[(oxan-4-yl)methoxy]-2-oxobutanamide], in experiment [1], the IC50 is under 1000 nM. Besides, the EC50 in experiment [2] (HeLa H1, 48 h) was under 1000 nM.

`O=CN(CC1CCOCC1)C(C(=O)C(=O)NCC1CC1)C1CC1` (centres unmarked) [FP 66, 3-Cyclopropyl-N-(cyclopropylmethyl)-3-{N-[(oxan-4-yl)methyl]formamido}-2-oxopropanamide]: in experiment [1], the half-maximal inhibitory concentration (IC50) was under 1000 nM. For the same compound, the EC50 in experiment [2] (HeLa H1, 48 h) was 1000 to 10000 nM.

Turning to `CCOCCOCCNC(=O)C(=O)[C@H]1CCC(=O)N1Cc1ccccc1` [FP 302, 2-[(2R)-1-Benzyl-5-oxopyrrolidin-2-yl]-N-[2-(2-ethoxyethoxy)ethyl]-2-oxoacetamide], the IC50 in experiment [1] was under 1000 nM. For the same compound, the EC50 in experiment [2] (HeLa H1, 48 h) is 1000 to 10000 nM.

As to `O=C(N[C@@H]1C[C@@H]1F)C(=O)[C@H]1CCC(=O)N1Cc1ccccc1` [FP 267, 2-[(2R)-1-Benzyl-5-oxopyrrolidin-2-yl]-N-[(1R,2S)-2-fluorocyclopropyl]-2-oxoacetamide], the IC50 in experiment [1] was under 1000 nM. Also, the EC50 in experiment [2] (HeLa H1, 48 h) is under 1000 nM.

In the case of `COc1ccccc1OC(C)C(=O)C(=O)NCc1cccc(Cl)c1` (centres unmarked) [FP 133, N-[(3-Chlorophenyl)methyl]-3-(2-methoxyphenoxy)-2-oxobutanamide], the IC50 in experiment [1] is under 1000 nM. Besides, the EC50 in experiment [2] (HeLa H1, 48 h) lay in the range of 1000 to 10000 nM.

Regarding `C[C@H]1CC(=O)N(Cc2ccccc2)[C@H]1C(=O)C(=O)NCC1CC1` (single isomer, unassigned) [FP 337], in experiment [1], the IC50 was under 1000 nM. In experiment [2] (HeLa H1, 48 h), the EC50 was under 1000 nM.

On to `CC(C(=O)C(=O)NCc1cccc(Cl)c1)N(C)C=O` (centres unmarked) [FP 69, N-[(3-Chlorophenyl)methyl]-3-(N-methylformamido)-2-oxobutanamide], for which, in experiment [1], the half-inhibitory concentration (IC50) fell in the range of 1000 to 10000 nM. In addition, the 50% effective concentration (EC50) in experiment [2] (HeLa H1, 48 h) is over 10000 nM.

On to `COCC(=O)N(c1ccccc1OC)C(C)C(=O)C(=O)NCc1cccc(Cl)c1` (centres unmarked) [FP 175, N-[(3-Chlorophenyl)methyl]-3-[2-methoxy-N-(2-methoxyphenyl)acetamido]-2-oxobutanamide], for which the IC50 in experiment [1] was under 1000 nM. The EC50 in experiment [2] (HeLa H1, 48 h) was 1000 to 10000 nM.

Regarding `CC(C(=O)C(=O)NCC1CCCCC1)N(C=O)CC1CCOCC1` (centres unmarked) [FP 49, N-(Cyclohexylmethyl)-3-{N-[(oxan-4-yl)methyl]formamido}-2-oxobutanamide], in experiment [1], the IC50 is under 1000 nM. In addition, in experiment [2] (HeLa H1, 48 h), the 50% effective concentration (EC50) was under 1000 nM.

Consider `CC(C)CNC(=O)C(=O)C(C)NC(=O)c1ccccc1` (centres unmarked) [FP 182, N-(2-Methylpropyl)-2-oxo-3-(phenylformamido)butanamide], for which the IC50 in experiment [1] was under 1000 nM. Moreover, in experiment [2] (HeLa H1, 48 h), the EC50 was over 10000 nM.

For `COc1ccccc1N(C=O)C(C)C(=O)C(=O)NCc1ccc(Cl)cc1` (centres unmarked) [FP 91, N-[(4-Chlorophenyl)methyl]-3-[N-(2-methoxyphenyl)formamido]-2-oxobutanamide], the IC50 in experiment [1] is under 1000 nM. For the same compound, the EC50 in experiment [2] (HeLa H1, 48 h) was under 1000 nM.

Take `CC(C(=O)C(=O)NCC1CC1)N(C)S(=O)(=O)c1ccccc1` (centres unmarked) [FP 221, N-(Cyclopropylmethyl)-3-(N-methylbenzenesulfonamido)-2-oxobutanamide]: in experiment [1], the IC50 was under 1000 nM. Further, in experiment [2] (HeLa H1, 48 h), the EC50 was over 10000 nM.

Take `CC(C)SCCNC(=O)C(=O)C1CCC(=O)N1Cc1ccc(Cl)cc1` (centres unmarked) [FP 257, 2-{1-[(4-Chlorophenyl)methyl]-5-oxopyrrolidin-2-yl}-2-oxo-N-[2-(propan-2-ylsulfanyl)-ethyl]acetamide]: the IC50 in experiment [1] is under 1000 nM. Besides, the EC50 in experiment [2] (HeLa H1, 48 h) was under 1000 nM.

Regarding `Cc1ccncc1C(=O)NC(C)C(=O)C(=O)NCC1CCCCC1` (centres unmarked) [FP 209, N-(Cyclohexylmethyl)-3-[(4-methylpyridin-3-yl)formamido]-2-oxobutanamide], the half-maximal inhibitory concentration (IC50) in experiment [1] is under 1000 nM. In addition, the half-maximal effective concentration (EC50) in experiment [2] (HeLa H1, 48 h) fell in the range of 1000 to 10000 nM.

`CC(C(=O)C(=O)NCCOC1CCCCC1)N(C=O)C1CCCCC1` (centres unmarked) [FP 55, 3-(N-Cyclohexylformamido)-N-[2-(cyclohexyloxy)ethyl]-2-oxobutanamide]: the IC50 in experiment [1] was under 1000 nM. The concentration for a half-maximal effect (EC50) in experiment [2] (HeLa H1, 48 h) is under 1000 nM.

Turning to `CCC(C(=O)C(=O)NCC1CCCCC1)N(C=O)C1CCCCC1` (centres unmarked) [FP 60, 3-(N-Cyclohexylformamido)-N-(cyclohexylmethyl)-2-oxopentanamide], the IC50 in experiment [1] was under 1000 nM. The EC50 in experiment [2] (HeLa H1, 48 h) is 1000 to 10000 nM.

As to `CC(OCC1CCOCC1)C(=O)C(=O)NCC1CC1` (centres unmarked) [FP 121, N-(Cyclopropylmethyl)-3-[(oxan-4-yl)methoxy]-2-oxobutanamide], the IC50 in experiment [1] is under 1000 nM. The EC50 in experiment [2] (HeLa H1, 48 h) is 1000 to 10000 nM.

For the compound `CCC(NC(=O)c1ccccc1)C(=O)C(=O)NCC1CC1` (centres unmarked) [FP 155, N-(Cyclopropylmethyl)-2-oxo-3-(phenylformamido)pentanamide], in experiment [1], the half-maximal inhibitory concentration (IC50) is under 1000 nM. Besides, in experiment [2] (HeLa H1, 48 h), the EC50 was in the range of 1000 to 10000 nM.

Take `COc1ccccc1N(C=O)C(C)C(=O)C(=O)NCc1c(C)cccc1C` (centres unmarked) [FP 99, N-[(2,6-Dimethylphenyl)methyl]-3-[N-(2-methoxyphenyl)formamido]-2-oxobutanamide]: in experiment [1], the IC50 is under 1000 nM. Besides, the EC50 in experiment [2] (HeLa H1, 48 h) lay within 1000 to 10000 nM.
